Bounds are passed on as bounds.

The term IC50 denotes the concentration at which inhibition is half-maximal.

The test system of one test is NCI-H358 (K-Ras G12C). Description: CellTiter-Glo cell viability assay, NCI-H358. Format: cell-based, human. The conditions noted are these: 5-day treatment; read-out: H358 Cell Viability assay data (K-Ras G12C, IC50). The procedure: Determination of Cell Viability in RAS Mutant Cancer Cell Lines Protocol: CellTiter-Glo® Cell Viability Assay
Note—The following protocol describes a procedure for monitoring cell viability of K-Ras mutant cancer cell lines in response to a compound of the invention. Other RAS isoforms may be employed, though the number of cells to be seeded will vary based on cell line used.
Test compounds (132.5 nL) were directly dispensed into the assay plates containing cells. […] On day 5, assay plates and their contents were equilibrated to room temperature for approximately 30 minutes. […] Luminescence was measured using the PerkinElmer Enspire. Data were normalized by the following: (Sample signal/Avg. DMSO)*100. The data were fit using a four-parameter logistic fit.
Background: Cellular ATP, detected with luciferase, serves as a proxy for viable cell number.
In the case of `C=CC(=O)N1CC[C@H](C(=O)N(C)[C@H](C(=O)N[C@H]2Cc3cccc(c3)-c3ccc4c(c3)c(c(-c3cnccc3[C@H](C)OC)n4CC)CC(C)(C)COC(=O)[C@@H]3CCCN(N3)C2=O)C(C)C)C1` [Compound A122], the concentration for half-maximal inhibition (IC50) was more than 10 µM.

On to `C=CC(=O)N1CC[C@H](C(=O)N(C)[C@H](C(=O)N[C@H]2Cc3cc(O)cc(c3)-c3ccc4c(c3)c(c(-c3cnccc3[C@H](C)OC)n4CC)CC(C)(C)COC(=O)[C@@H]3CCCN(N3)C2=O)C(C)C)C1` [Compound A112], for which the IC50 was less than 0.01 µM.

The same test, now with this note: Homo sapiens, NCI-H358, 120 h, 5-day treatment; read-out: H358 Cell Viability assay data (K-Ras G12C, IC50).
`C=CS(=O)(=O)N1CC[C@H](C(=O)N(C)[C@H](C(=O)N[C@H]2Cc3cc(O)cc(c3)-c3ccc4c(c3)c(c(-c3cccnc3[C@H](C)OC)n4CC)CC(C)(C)COC(=O)[C@@H]3CCCN(N3)C2=O)C(C)C)C1` (atropisomer, axis not shown) [Compound A132]: the IC50 was less than 0.01 µM.

For `CCn1c(-c2cccnc2[C@H](C)OC)c2c3cc(ccc31)-c1csc(n1)C[C@H](NC(=O)[C@H](C(C)C)N(C)C(=O)N1CC3(CC(N4CCOCC4)C3)C1)C(=O)N1CCC[C@H](N1)C(=O)OCC(C)(C)C2` [Compound A486], the 50% inhibitory concentration (IC50) was 0.1 to 1 µM. With `CCn1c(-c2ccccc2CCOC)c2c3cc(ccc31)-c1cc(O)cc(c1)C[C@H](NC(=O)[C@H](C(C)C)N(C)C(=O)c1ccc(NC(=O)/C=C/CN(C)C)nc1)C(=O)N1CCC[C@H](N1)C(=O)OCC(C)(C)C2` [Compound A218], the concentration for half-maximal inhibition (IC50) is more than 10 µM.

On to `CCn1c(-c2cccnc2[C@H](C)OC)c2c3cc(ccc31)-c1cccc(c1)C[C@H](NC(=O)[C@H](C(C)C)N1CC[C@]3(CCN(C(=O)C#C[C@]4(N(C)C)CCOC4)C3)C1=O)C(=O)N1CCC[C@H](N1)C(=O)OCC(C)(C)C2` [Compound A559], for which the 50% inhibitory concentration (IC50) was less than 0.01 µM. As for `CCn1c(-c2cccnc2[C@H](C)OC)c2c3cc(ccc31)-c1cc(O)cc(c1)C[C@H](NC(=O)[C@H](C(C)C)N(C)C(=O)[C@H]1CCN(C(=O)C#CCN3CCOCC3)C1)C(=O)N1CCC[C@H](N1)C(=O)OCC(C)(C)C2` [Compound A182], the concentration for half-maximal inhibition (IC50) is less than 0.01 µM. As to `CCn1c(-c2cccnc2COC)c2c3cc(ccc31)-c1cc(O)cc(c1)C[C@H](NC(=O)[C@H](C(C)C)N(C)C(=O)[C@H]1CCN(C(=O)C#CCN3CCN(C)CC3)C1)C(=O)N1CCC[C@H](N1)C(=O)OCC(C)(C)C2` [Compound A189], the half-maximal inhibitory concentration (IC50) is more than 10 µM. Still for that read-out and setting: as for `CCn1c(-c2ccccc2CN(C)C)c2c3cc(ccc31)-c1cc(O)cc(c1)C[C@H](NC(=O)[C@H](C(C)C)N(C)Cc1ccc(NC(=O)/C=C/CN(C)C)cn1)C(=O)N1CCC[C@H](N1)C(=O)OCC(C)(C)C2` [Compound A213], the figure is more than 10 µM; as for `C=CC(=O)N1CC[C@H](C(=O)N(C)[C@H](C(=O)N[C@H]2Cc3ncc(n3C)-c3ccc4c(c3)c(c(-c3cccnc3[C@H](C)OC)n4CC)CC(C)(C)COC(=O)[C@@H]3CCCN(N3)C2=O)C(C)C)C1` [Compound A276], more than 10 µM. With `CCn1c(-c2cccnc2[C@H](C)OC)c2c3cc(ccc31)-c1cc(O)cc(c1)C[C@H](NC(=O)C1CCCC1C(F)F)C(=O)N1CCC[C@H](N1)C(=O)OCC(C)(C)C2` (stereo partly shown) [Compound A254], the IC50 fell in the range of 0.1 to 1 µM. Take `C=CC(=O)N1CC[C@H](C(=O)N(C)[C@H](C(=O)N[C@H]2Cc3cc(O)cc(c3)-c3ccc4c(c3)c(c(-c3cccnc3)n4C3CC3)CC(C)(C)COC(=O)[C@@H]3CCCN(N3)C2=O)C(C)C)C1` [Compound A160]: the IC50 lay in the range of 0.1 to 1 µM. The same measure, in the same setting: as for `CCn1c(-c2ccccc2CN(C)C)c2c3cc(ccc31)-c1cc(O)cc(c1)C[C@H](NC(=O)[C@H](C(C)C)N(C)C(=O)c1ccc(NC(=O)/C=C/CN(C)C)cn1)C(=O)N1CCC[C@H](N1)C(=O)OCC(C)(C)C2` [Compound A46], the figure is more than 10 µM; as for `C=CC(=O)N1CC[C@H](C(=O)N(C)[C@H](C(=O)N[C@H]2C[C@H]3CN(CCCO3)c3ccc4c(c3)c(c(-c3cccnc3[C@H](C)OC)n4CC)CC(C)(C)COC(=O)[C@@H]3CCCN(N3)C2=O)C(C)C)C1` [Compound A405], more than 10 µM.

On to `C=CC(=O)N1CC[C@H](C(=O)N(C)[C@H](C(=O)N[C@H]2Cc3cc(OC4O[C@H](CO)[C@@H](O)[C@H](O)[C@H]4O)cc(c3)-c3ccc4c(c3)c(c(-c3cccnc3COC)n4CC)CC(C)(C)COC(=O)[C@@H]3CCCN(N3)C2=O)C(C)C)C1` (stereo partly shown) [Compound A234], for which the IC50 was more than 10 µM. The same measure, in the same setting: as for `CCn1c(-c2cccnc2[C@H](C)OC)c2c3cc(ccc31)-c1csc(n1)[C@@H](O)[C@H](NC(=O)[C@H](C(C)C)N(C)C(=O)N1CC(N(C)C)C1)C(=O)N1CCC[C@H](N1)C(=O)OCC(C)(C)C2` [Compound A489], the figure is 0.01 to 0.1 µM; as for `C=CC(=O)Nc1ccc(C(=O)N(C)[C@H](C(=O)N[C@H]2Cc3cc(O)cc(c3)-c3ccc4c(c3)c(c(-c3cccnc3[C@H](C)OC)n4CC)CC(C)(C)COC(=O)[C@@H]3CCCN(N3)C2=O)C(C)C)cn1` [Compound A250], less than 0.01 µM. For the compound `C=CC(=O)N1CC[C@H](C(=O)N(C)[C@H](C(=O)N[C@H]2Cc3cc(ccn3)-c3ccc4c(c3)c(c(-c3cccnc3COC)n4CC)CC(C)(C)COC(=O)[C@@H]3CCCN(N3)C2=O)C(C)C)C1` [Compound A136], the IC50 is more than 10 µM.

On to `C=CC(=O)N1CC[C@H](C(=O)N(C)[C@H](C(=O)N[C@H]2Cc3cc(O)cc(c3)-c3ccc4c(c3)c(c(-c3cccnc3[C@@H]3CCCO3)n4CC)CC(C)(C)COC(=O)[C@@H]3CCCN(N3)C2=O)C(C)C)C1` [Compound A281], for which the half-maximal inhibitory concentration (IC50) is less than 0.01 µM. Consider `CCn1c(-c2cccnc2[C@H](C)OC)c2c3cc(ccc31)-c1cccc(c1)C[C@H](NC(=O)[C@H](C(C)C)N(C)C(=O)[C@H]1CCN(S(=O)(=O)C=C(C)C)C1)C(=O)N1CCC[C@H](N1)C(=O)OCC(C)(C)C2` (atropisomer, axis not shown) [Compound A307], for which the half-maximal inhibitory concentration (IC50) was more than 10 µM. Still for that read-out and setting: as for `C=CC(=O)N1CC[C@H](C(=O)N(C)[C@H](C(=O)N[C@H]2Cc3cc(O)cc(c3)-c3ccc4c(c3)c(c(-c3cncnc3)n4CC)CC(C)(C)COC(=O)[C@@H]3CCCN(N3)C2=O)C(C)C)C1` [Compound A61], the figure is 0.01 to 0.1 µM; as for `CCn1c(-c2ccccc2COC)c2c3cc(ccc31)-c1cc(O)cc(c1)C[C@H](NC(=O)[C@H](C(C)C)N(C)C(=O)[C@H]1CCN(C(=O)/C=C/CN(C)C)C1)C(=O)N1CCC[C@H](N1)C(=O)OCC(C)(C)C2` [Compound A79], 0.01 to 0.1 µM. The same measure, in the same setting: the value for `CCn1c(-c2cccnc2[C@H](C)OC)c2c3cc(ccc31)-c1csc(n1)C[C@H](NC(=O)[C@H](C(C)C)N(C)C(=O)N(C)C1CN(C(=O)/C=C/C(C)(C)O)C1)C(=O)N1CCC[C@H](N1)C(=O)OCC(C)(C)C2` (atropisomer, axis not shown) [Compound A350] was 0.1 to 1 µM; that for `C=CC(=O)N1CC[C@H](C(=O)N(C)[C@H](C(=O)N[C@H]2CCC(=O)N(C)Cc3ccc4c(c3)c(c(-c3cccnc3[C@H](C)OC)n4CC)CC(C)(C)COC(=O)[C@@H]3CCCN(N3)C2=O)C(C)C)C1` [Compound A500] was more than 10 µM; that for `C=CC(=O)N1CC[C@H](C(=O)N(C)[C@H](C(=O)N[C@H]2Cc3cc(OC(=O)CN)cc(c3)-c3ccc4c(c3)c(c(-c3c(CCOC)cccc3OC)n4CC)CC(C)(C)COC(=O)[C@@H]3CCCN(N3)C2=O)C(C)C)C1` [Compound A8] was 0.1 to 1 µM. Same read-out and setting: as for `CCn1c(-c2cccnc2[C@H](C)OC)c2c3cc(ccc31)-c1csc(n1)C[C@H](NC(=O)[C@H](C(C)C)N(C)C(=O)N1CC([C@H](C)CO)C1)C(=O)N1CCC[C@H](N1)C(=O)OCC(C)(C)C2` [Compound A478], the figure is 0.01 to 0.1 µM; as for `CO[C@@H](COC1CN(C(=O)C#CC(C)(C)N(C)C)C1)C(=O)N[C@H]1Cc2cccc(c2)-c2ccc3c(c2)c(c(-c2cccnc2[C@H](C)OC)n3CC(F)(F)F)CC(C)(C)COC(=O)[C@@H]2CCCN(N2)C1=O` [Compound A556], less than 0.01 µM; as for `CCn1c(-c2cccnc2COC)c2c3cc(ccc31)-c1cc(O)cc(c1)C[C@H](NC(=O)[C@H](C(C)C)N(C)C(=O)[C@H]1CCN(C(=O)/C=C/CN3CCN(C)CC3)C1)C(=O)N1CCC[C@H](N1)C(=O)OCC(C)(C)C2` [Compound A72], more than 10 µM. In the case of `C=CC(=O)N1CC[C@H](C(=O)N(C)[C@H](C(=O)N[C@H]2Cc3cc(O)cc(c3)-c3ccc4c(c3)c(c(-c3cc(CN(C)C)cnc3COC)n4CC)CC(C)(C)COC(=O)[C@@H]3CCCN(N3)C2=O)C(C)C)C1` [Compound A149], the IC50 is 0.01 to 0.1 µM.

On to `C=CC(=O)N1CCN(C(=O)N(C)[C@H](C(=O)N[C@H]2Cc3cc(O)cc(c3)-c3ccc4c(c3)c(c(-c3ccccc3CCOC)n4CC)CC(C)(C)COC(=O)[C@@H]3CCCN(N3)C2=O)C(C)C)C[C@@H]1COC` [Compound A125], for which the concentration for half-maximal inhibition (IC50) is more than 10 µM. Regarding `C=CC(=O)N1CC[C@H](C(=O)N(C)[C@H](C(=O)N[C@H]2Cc3cc(O)cc(c3)-c3ccc4c(c3)c(c(-c3ncccc3COC)n4CC)CC(C)(C)COC(=O)[C@@H]3CCCN(N3)C2=O)C(C)C)C1` [Compound A16], the half-maximal inhibitory concentration (IC50) lay within 0.01 to 0.1 µM. As to `C=CC(=O)N1CC[C@H](C(=O)N(C)[C@H](C(=O)N[C@H]2CN(C)C(=O)Cc3ccc4c(c3)c(c(-c3cccnc3COC)n4CC)CC(C)(C)COC(=O)[C@@H]3CCCN(N3)C2=O)C(C)C)C1` [Compound A239], the 50% inhibitory concentration (IC50) was more than 10 µM.

On to `C=CC(=O)N1CC[C@H](C(=O)N(C)[C@H](C(=O)N[C@@H]2C(=O)N3CCC[C@H](N3)C(=O)OCC(C)(C)Cc3c(-c4cncnc4)n(CC)c4ccc(cc34)-c3cccc(c3)[C@H]2OC)C(C)C)C1` [Compound A273], for which the IC50 was more than 10 µM.

The same test, now with this note: Homo sapiens, NCI-H358, 120 h, read-out: H358 Cell Viability assay data (K-Ras G12C, IC50, uM), 5-day treatment.
`CCn1c(-c2cccnc2[C@H](C)OC)c2c3cc(ccc31)-c1csc(n1)C[C@H](NC(=O)[C@H](C(C)C)N(C)C(=O)N1CC3CC(C1)N3C)C(=O)N1CCC[C@H](N1)C(=O)OCC(C)(C)C2` [Compound A284]: the half-inhibitory concentration (IC50) was 0.1 to 1 µM.
